Laboratory results as given in US9708259B2 (Hoffmann-La Roche Inc., priority 2013, dated 2017).
Changes are numbered by the printed parent chain. Like-named read-outs stand apart in the source and are kept apart here.

Experiments:
ratM1 = target: T1, ratM1 (Rattus norvegicus, UniProt P08482); test: M1 PAM assay (FLIPR intracellular calcium), rat M1; type: cell-based; details: rat M1, FLIPR Ca2+; second value of the cell; read-out: ratM1 EC50
T1 construct: expressed in transfected cells; host or cells: CHO cells (stated generally for the assay, not specifically for rat M1)
T1 sequence (P08482 1-460): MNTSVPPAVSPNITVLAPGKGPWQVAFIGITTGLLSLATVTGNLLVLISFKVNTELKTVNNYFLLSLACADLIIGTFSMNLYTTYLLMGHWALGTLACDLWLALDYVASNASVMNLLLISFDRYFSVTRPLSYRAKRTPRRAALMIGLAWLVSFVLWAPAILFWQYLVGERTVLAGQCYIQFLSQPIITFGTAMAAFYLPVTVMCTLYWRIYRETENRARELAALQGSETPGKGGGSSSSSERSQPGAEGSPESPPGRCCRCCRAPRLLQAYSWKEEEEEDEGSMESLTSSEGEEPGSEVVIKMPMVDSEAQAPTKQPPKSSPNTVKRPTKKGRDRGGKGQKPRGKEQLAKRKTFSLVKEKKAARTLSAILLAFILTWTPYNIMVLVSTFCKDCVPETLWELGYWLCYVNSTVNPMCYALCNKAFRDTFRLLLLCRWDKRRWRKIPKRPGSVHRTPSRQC

human M1 = target: T2, human M1 (Homo sapiens, UniProt P11229); test: M1 PAM assay (FLIPR intracellular calcium), human M1; type: cell-based
T2 construct: expressed in transfected cells; host or cells: CHO cells
T2 sequence (P11229 1-460): T1 sequence (P08482 1-460) with V5A, S254T, S309P, K320R, G337A, V413I
Description: The assay study the effect of several concentrations of test compounds on basal or acetylcholine-stimulated Ca^2+ levels using FLIPR.
CHO human M1 are plated the day before the experiments at 2×10^5 cells/ml in PDL BioCoat 96 well black/clear plate (Becton 35 4640). The cells are grown at 37° C. and 5% CO2 in the following medium: F12 Nut Mix (Gibco 21765), 10% FCS heat inactivated (GIBCO 16000-044), 1% Pen Strep (Gibco,15140) and 200 μg/ml Geneticin (Gibco 11811). On the day of the experiment, the medium was removed and replaced by […] of dye loading buffer containing Hanks Balanced Salt solution (HBSS, 14065-049, Gibco) with 20 mM HEPES (Gibco 15630-056), 2 mM Probenicid (Sigma P8761), […] ester (Molecular Probes F-14202), 10% Pluronic acid Molecular Probes P-3000) pH=7.4 and incubated at 37° C. After 60 minutes extracellular dye was removed and the cells were washed five times with FLIPR buffer containing HBSS (Gibco 14065-049) with 20 mM HEPES (Gibco, 15630-056), 2 mM Probenicid (Sigma P8761) pre-warmed at 37° C. using and Ebml cell washer leaving […] of FLIPR buffer in each well. The cell plate and the diluted compounds (1% DMSO final concentration) are placed on the platform of the FLIPR and the door closed. A signal test to check background fluorescence and basal fluorescence signal is performed. Laser intensity is adjusted if necessary. Two minutes preincubation with the diluted test compounds is provide to determine any agonist activity on the M1 receptor by comparison to 30 nM Acetylcholine control. In order to determine any modulator activity the diluted compounds were added to cells and after two minutes preincubation, the EC20 of acetylcholine is added followed by another two minutes preincubation before the measurement of intracellular Ca^2+ with a FLIPR (Molecular Devices).

[1] = CHO human M1 cells, FLIPR Ca2+, with EC20 of acetylcholine, first value of the cell, read-out: hM1 EC50

SMILES	EC50 (ratM1) [nM]	EC50 (human M1; [1]) [nM]	EC50 (human M1) [nM]
O=C(N[C@H]1CCCC[C@@H]1O)c1cn(Cc2ccc(-c3ccccc3)cn2)c2cccc(F)c12 [Example 140]	518	103	–
Cn1cc(-c2ccc(Cn3cc(C(=O)N[C@H]4CCCC[C@@H]4O)c4c(F)cccc43)c(F)c2)cn1 [Example 1]	62.6	5.64	–
CNC(=O)c1ccc(Cn2cc(C(=O)NC3CCCCC3(F)F)c3c(F)cccc32)cc1 (stereo not shown) [Example 120, N-(2,2-difluorocyclohexyl)-4-fluoro-1-[[4-(methylcarbamoyl)phenyl]methyl]indole-3-carboxamide]	32	15	–
Cn1cc(-c2ccc(Cn3cc(C(=O)N[C@@H]4C[C@@H]5CC[C@H]4O5)c4c(F)cccc43)c(F)c2)cn1 (relative stereo) [Example 104, N-((endo)-7-oxabicyclo[2.2.1]heptan-2-yl)-4-fluoro-1-(2-fluoro-4-(1-methyl-1H-pyrazol-4-yl)benzyl)-1H-indole-3-carboxamide]	196	165	–
Cn1cc(-c2ccc(Cn3cc(C(=O)N[C@H]4CCCC[C@@H]4O)c4c(F)cc(F)cc43)c(F)c2)cn1 [Example 5, 4,6-difluoro-1-(2-fluoro-4-(1-methyl-1H-pyrazol-4-yl)benzyl)-N-((1S,2S)-2-hydroxycyclohexyl)-1H-indole-3-carboxamide]	231	83.8	–
COc1ccc(F)c2c(C(=O)N[C@H]3CCCC[C@@H]3O)cn(Cc3ccc(-c4cnn(C)c4)cc3)c12 [Example 148, 4-fluoro-N-((1S,2S)-2-hydroxycyclohexyl)-7-methoxy-1-(4-(1-methyl-1H-pyrazol-4-yl)benzyl)-1H-indole-3-carboxamide]	139	84	–
CNC(=O)c1ccc(Cn2cc(C(=O)NC3CCCCC3(F)F)c3c(F)cccc32)cc1F (stereo not shown) [Example 165, N-(2,2-difluorocyclohexyl)-4-fluoro-1-(3-fluoro-4-(methy7lcarbamoyl)benzyl)-1H-indole-3-carboxamide]	–	43	–
CNC(=O)c1ccc(Cn2cc(C(=O)NC3CCSCC3)c3c(F)cccc32)cc1F [Example 167, 4-fluoro-1-(3-fluoro-4-(methylcarbamoyl)benzyl)-N-(tetrahydro-2H-thiopyran-4-yl)-1H-indole-3-carboxamide]	–	47	–
N#Cc1cccc(Cn2cc(C(=O)N[C@H]3CCCC[C@@H]3O)c3c(F)cccc32)c1 [Example 40, 1-(3-cyanobenzyl)-4-fluoro-N-((1S,2S)-2-hydroxycyclohexyl)-1H-indole-3-carboxamide]	–	–	476
O=C(N[C@H]1CCCC[C@@H]1O)c1cn(CC2CCN(c3ccccn3)CC2)c2cccc(F)c12 [Example 160, 4-Fluoro-N-((1S,2S)-2-hydroxycyclohexyl)-1-((1-(pyridin-2-yl)piperidin-4-yl)methyl)-1H-indole-3-carboxamide]	–	196	–
NC(=O)c1cccc(Cn2cc(C(=O)N[C@H]3CCCC[C@@H]3O)c3c(F)cccc32)c1 [Example 81, 1-(3-carbamoylbenzyl)-4-fluoro-N-((1S,2S)-2-hydroxycyclohexyl)-1H-indole-3-carboxamide]	–	351	–
O=C(N[C@H]1CCCC[C@@H]1O)c1cn(Cc2ccc(OC(F)(F)F)cc2)c2cccc(F)c12 [Example 34, 4-fluoro-N-((1S,2S)-2-hydroxycyclohexyl)-1-(4-(trifluoromethoxy)benzyl)-1H-indole-3-carboxamide]	–	–	342
CS(=O)(=O)c1ccc(Cn2cc(C(=O)N[C@H]3CCCC[C@@H]3O)c3c(F)cccc32)cc1 [Example 82, 4-fluoro-N-((1S,2S)-2-hydroxycyclohexyl)-1-(4-(methylsulfonyl)benzyl)-1H-indole-3-carboxamide]	–	435	–
CNC(=O)c1cccc(Cn2cc(C(=O)N[C@H]3CCCC[C@@H]3O)c3c(F)cccc32)c1 [Example 89, 4-fluoro-N-((1S,2S)-2-hydroxycyclohexyl)-1-(3-(methylcarbamoyl)benzyl)-1H-indole-3-carboxamide]	–	319	–
O=C(N[C@H]1CCCC[C@@H]1O)c1cn(Cc2cccc(Cl)c2)c2cccc(F)c12 [Example 39, 1-(3-chlorobenzyl)-4-fluoro-N-((1S,2S)-2-hydroxycyclohexyl)-1H-indole-3-carboxamide]	–	–	205
Cn1cc(-c2ccc(Cn3cc(C(=O)N[C@H]4CCCC[C@@H]4O)c4c(F)c(F)ccc43)cc2)cn1 [Example 57, 4,5-difluoro-N-((1S,2S)-2-hydroxycyclohexyl)-1-(4-(1-methyl-1H-pyrazol-4-yl)benzyl)-1H-indole-3-carboxamide]	–	139	–
Cn1cc(-c2ccc(Cn3cc(C(=O)NC4CCCCC4(F)F)c4c(F)cccc43)c(F)c2)cn1 (stereo not shown) [Example 25, N-(2,2-difluorocyclohexyl)-4-fluoro-1-(2-fluoro-4-(1-methyl-1H-pyrazol-4-yl)benzyl)-1H-indole-3-carboxamide]	–	359	–
Cn1cc(-c2cccc(Cn3cc(C(=O)N[C@H]4CCCC[C@@H]4O)c4c(F)cccc43)c2)cn1 [Example 35, 4-fluoro-N-((1S,2S)-2-hydroxycyclohexyl)-1-(3-(1-methyl-1H-pyrazol-4-yl)benzyl)-1H-indole-3-carboxamide]	–	226	–
CNC(=O)c1ccc(Cn2cc(C(=O)NC3CCOCC3C)c3c(F)cccc32)cc1F (stereo not shown) [Example 168, 4-fluoro-1-(3-fluoro-4-(methylcarbamoyl)benzyl)-N-(3-methyltetrahydro-2H-pyran-4-yl)-1H-indole-3-carboxamide]	–	97	–
CN(C)C(=O)c1cccc(Cn2cc(C(=O)N[C@H]3CCCC[C@@H]3O)c3c(F)cccc32)c1 [Example 90, 1-(3-(dimethylcarbamoyl)benzyl)-4-fluoro-N-((1S,2S)-2-hydroxycyclohexyl)-1H-indole-3-carboxamide]	–	341	–
CNC(=O)c1ccc(Cn2cc(C(=O)NC3CCOC(C)(C)C3)c3c(F)cccc32)cc1F (stereo not shown) [Example 166, N-(2,2-dimethyltetrahydro-2H-pyran-4-yl)-4-fluoro-1-(3-fluoro-4-(methylcarbamoyl)benzyl)-1H-indole-3-carboxamide]	–	35	–
CCOC(=O)Nc1ccc(Cn2cc(C(=O)N[C@H]3CCCC[C@@H]3O)c3c(F)cccc32)cc1 [Example 85, ethyl 4-((4-fluoro-3-((1S,2S)-2-hydroxycyclohexylcarbamoyl)-1H-indol-1-yl)methyl)phenylcarbamate]	–	42.9	–
O=C(N[C@H]1CCCC[C@@H]1O)c1cn(Cc2ccc(OC(F)F)cc2)c2cccc(F)c12 [Example 29, 1-(4-(difluoromethoxy)benzyl)-4-fluoro-N-((1S,2S)-2-hydroxycyclohexyl)-1H-indole-3-carboxamide]	–	–	226
Cn1cc(-c2ccc(Cn3nc(C(=O)NC4CCOCC4)c4c(F)cccc43)cc2)cn1 [Example 69, 4-fluoro-1-(4-(1-methyl-1H-pyrazol-4-yl)benzyl)-N-(tetrahydro-2H-pyran-4-yl)-1H-indazole-3-carboxamide]	–	344	–
COc1ccc(Cn2cc(C(=O)N[C@H]3CCCC[C@@H]3O)c3c(F)cccc32)c(F)c1 [Example 28, 4-fluoro-1-(2-fluoro-4-methoxybenzyl)-N-((1S,2S)-2-hydroxycyclohexyl)-1H-indole-3-carboxamide]	–	–	272
